ChEMBL document CHEMBL1201862, “PubChem BioAssay data set” (2004)
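Step 1: Grow cells in 96-well plates. Step 2: Expose to compound for 48 hours at 5 concentrations. Step 3: Interpolate endpoints linearly; if unreached, use highest concentration. Here, GI50 denotes the concentration required for 50% inhibition of growth.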 The source made the active and inactive calls. No stated cut-off is given here; in the data, active = GI50 up to about 1.1 µM and inactive = higher.

Key:
Assay in all cases: NCI-60 cell line screen, 48 h
SR = tested on: SR
MDA-MB-435 = tested on: MDA-MB-435
OVCAR-4 = tested on: OVCAR-4
NCI/ADR-RES = tested on: NCI/ADR-RES
SNB-75 = tested on: SNB-75
MCF7 = tested on: MCF7
UO-31 = tested on: UO-31
EKVX = tested on: EKVX
M14 = tested on: M14
COLO 205 = tested on: COLO 205
SK-MEL-28 = tested on: SK-MEL-28
ACHN = tested on: ACHN
786-0 = tested on: 786-0
LOX IMVI = tested on: LOX IMVI
A549 = tested on: A549
NCI-H226 = tested on: NCI-H226
PC-3 = tested on: PC-3
SK-MEL-2 = tested on: SK-MEL-2
HCC 2998 = tested on: HCC 2998
RPMI-8226 = tested on: RPMI-8226

Measured: GI50

COc1cccc(N2C(=O)CS(=O)(=O)C2c2cccc(Oc3ccccc3)c2)c1 (stereo unspecified)
inactive: SR 3.13 µM | MDA-MB-435 3.56 µM | OVCAR-4 28.6 µM | NCI/ADR-RES 9.42 µM | SNB-75 15.6 µM | MCF7 3.04 µM | UO-31 34.4 µM | EKVX 17 µM | M14 15.4 µM | COLO 205 6 µM | SK-MEL-28 34 µM | ACHN 20.1 µM | 786-0 16.9 µM | LOX IMVI 17.1 µM | A549 26.7 µM | NCI-H226 19.1 µM | PC-3 9.98 µM | SK-MEL-2 14.2 µM

O=C(O)c1ccccc1Sc1ccccc1[N+](=O)[O-]
inactive: HCC 2998 > 100 µM | MDA-MB-435 > 100 µM | OVCAR-4 > 100 µM | NCI/ADR-RES > 100 µM | RPMI-8226 > 100 µM | SNB-75 76.9 µM | MCF7 > 100 µM | UO-31 > 100 µM | EKVX > 100 µM | M14 > 100 µM | COLO 205 > 100 µM | SK-MEL-28 > 100 µM | ACHN > 100 µM | 786-0 > 100 µM | LOX IMVI > 100 µM | A549 > 100 µM | NCI-H226 > 100 µM | PC-3 > 100 µM | SK-MEL-2 > 100 µM

CC(=O)Nc1ccc(C(=O)N[C@@H]2C(=O)N3[C@@H]2SC(C)(C)[C@@H]3C(=O)O)cn1
inactive: HCC 2998 > 100 µM | MDA-MB-435 > 100 µM | OVCAR-4 > 100 µM | NCI/ADR-RES > 100 µM | RPMI-8226 > 100 µM | SNB-75 > 100 µM | MCF7 > 100 µM | UO-31 > 100 µM | EKVX > 100 µM | M14 > 100 µM | COLO 205 > 100 µM | SK-MEL-28 > 100 µM | ACHN > 100 µM | 786-0 > 100 µM | LOX IMVI > 100 µM | A549 > 100 µM | NCI-H226 > 100 µM | PC-3 > 100 µM | SK-MEL-2 > 100 µM

Cc1cn(Cc2ccccc2CCl)c(=O)[nH]c1=O
inactive: HCC 2998 15.3 µM | MDA-MB-435 11.5 µM | OVCAR-4 34.3 µM | NCI/ADR-RES 18.2 µM | SNB-75 14.6 µM | MCF7 4.84 µM | UO-31 11.6 µM | EKVX 16.4 µM | M14 12.9 µM | COLO 205 17.1 µM | SK-MEL-28 19.4 µM | ACHN 12.6 µM | 786-0 14.2 µM | A549 16.9 µM | PC-3 16 µM | SK-MEL-2 14.3 µM

CC(C)CCC1(CCN)C(=O)NC(=O)NC1=O
inactive: SR 6.68 µM | MDA-MB-435 > 100 µM | OVCAR-4 > 100 µM | NCI/ADR-RES > 100 µM | RPMI-8226 > 100 µM | SNB-75 > 100 µM | MCF7 > 100 µM | UO-31 > 100 µM | EKVX > 100 µM | M14 > 100 µM | COLO 205 > 100 µM | SK-MEL-28 > 100 µM | ACHN > 100 µM | 786-0 > 100 µM | LOX IMVI > 100 µM | A549 > 100 µM | NCI-H226 > 100 µM | PC-3 > 100 µM | SK-MEL-2 > 100 µM

Cc1cc(C)c(S(=O)(=O)N2CCCN(S(=O)(=O)c3c(C)cc(C)cc3C)OCCCO2)c(C)c1
inactive: MDA-MB-435 > 100 µM | OVCAR-4 79.4 µM | NCI/ADR-RES > 100 µM | SNB-75 57.1 µM | MCF7 > 100 µM | UO-31 > 100 µM | EKVX > 100 µM | M14 > 100 µM | COLO 205 > 100 µM | SK-MEL-28 > 100 µM | ACHN > 100 µM | 786-0 > 100 µM | LOX IMVI > 100 µM | A549 > 100 µM | NCI-H226 > 100 µM | PC-3 89.3 µM | SK-MEL-2 > 100 µM

O=C(O)CNc1ccc2c(c1)Cc1cc(Br)ccc1-2
inactive: MDA-MB-435 15.3 µM | OVCAR-4 20.1 µM | NCI/ADR-RES 25.6 µM | RPMI-8226 19.9 µM | SNB-75 34.6 µM | MCF7 > 38.4 µM | UO-31 36 µM | EKVX 5.2 µM | M14 21.8 µM | COLO 205 21.1 µM | SK-MEL-28 31.3 µM | ACHN 33.1 µM | 786-0 39.6 µM | LOX IMVI 26.6 µM | A549 21.3 µM | NCI-H226 21.2 µM | PC-3 27.2 µM | SK-MEL-2 26 µM

O=S(=O)(Cc1ccccc1)c1nnc(S(=O)(=O)c2ccc(Cl)cc2)s1
inactive: MDA-MB-435 27.1 µM | OVCAR-4 24.4 µM | NCI/ADR-RES 25 µM | RPMI-8226 15.9 µM | SNB-75 16.6 µM | MCF7 48 µM | UO-31 21.3 µM | EKVX 25.6 µM | M14 17.7 µM | COLO 205 16 µM | SK-MEL-28 19.9 µM | ACHN 19.4 µM | 786-0 23.6 µM | A549 27.5 µM | PC-3 21.8 µM | SK-MEL-2 22.8 µM

COc1ccc(C2NC(=O)Nc3c2c(=O)oc2c3ccc3ccccc32)cc1 (stereo unspecified)
inactive: SR 50 µM | MDA-MB-435 56.5 µM | OVCAR-4 48 µM | NCI/ADR-RES 69.5 µM | RPMI-8226 43.3 µM | SNB-75 22.3 µM | MCF7 66.2 µM | UO-31 52.7 µM | EKVX 23.7 µM | M14 37.6 µM | COLO 205 > 100 µM | SK-MEL-28 55.5 µM | ACHN 51.6 µM | 786-0 67 µM | LOX IMVI 74.6 µM | A549 48.4 µM | NCI-H226 23.4 µM | PC-3 38.2 µM | SK-MEL-2 26.4 µM

CC1(C)C(CC(=O)O)CCCC1CC(=O)O (stereo unspecified)
inactive: SR > 100 µM | MDA-MB-435 > 100 µM | OVCAR-4 > 100 µM | NCI/ADR-RES > 100 µM | RPMI-8226 > 100 µM | MCF7 > 100 µM | UO-31 > 100 µM | EKVX > 100 µM | M14 > 100 µM | COLO 205 > 100 µM | SK-MEL-28 > 100 µM | ACHN > 100 µM | 786-0 > 100 µM | LOX IMVI > 100 µM | A549 > 100 µM | NCI-H226 55.5 µM | PC-3 > 100 µM | SK-MEL-2 > 100 µM

CCOC(=O)C1=C(C)NC(=O)NC1c1coc2cc(C)cc(C)c2c1=O (stereo unspecified)
inactive: SR 10.2 µM | MDA-MB-435 4.5 µM | OVCAR-4 55.3 µM | NCI/ADR-RES 27.5 µM | RPMI-8226 41.7 µM | SNB-75 3.27 µM | MCF7 36.2 µM | UO-31 44 µM | EKVX 31.6 µM | M14 34.7 µM | COLO 205 54.6 µM | SK-MEL-28 > 100 µM | ACHN > 81.3 µM | 786-0 67.9 µM | LOX IMVI 69.2 µM | A549 46.9 µM | NCI-H226 > 100 µM | PC-3 48.3 µM | SK-MEL-2 > 43.8 µM

CC(C)CCC[C@@H](C)C1CCC2[C@@H]3CCC4CC(CCC=C(c5cc(Cl)c(OC(=O)c6ccccc6)c(C(=O)O)c5)c5cc(Cl)c(OC(=O)c6ccccc6)c(C(=O)O)c5)CC[C@]4(C)C3CC[C@@]21C (stereo partly specified)
inactive: HCC 2998 > 100 µM | MDA-MB-435 72.8 µM | OVCAR-4 > 100 µM | NCI/ADR-RES > 100 µM | RPMI-8226 > 100 µM | SNB-75 > 100 µM | MCF7 > 100 µM | UO-31 > 100 µM | EKVX 88.3 µM | M14 15.8 µM | COLO 205 > 100 µM | ACHN > 100 µM | 786-0 22.6 µM | A549 > 100 µM | NCI-H226 85.7 µM | PC-3 > 100 µM | SK-MEL-2 > 100 µM

OCC(O)CNc1ncnc2ccccc12 (stereo unspecified)
inactive: HCC 2998 > 100 µM | MDA-MB-435 > 100 µM | OVCAR-4 > 100 µM | NCI/ADR-RES > 100 µM | RPMI-8226 > 100 µM | SNB-75 > 100 µM | MCF7 > 100 µM | UO-31 > 100 µM | EKVX > 100 µM | M14 > 100 µM | COLO 205 > 100 µM | SK-MEL-28 > 100 µM | ACHN > 100 µM | 786-0 > 100 µM | LOX IMVI > 100 µM | A549 > 100 µM | NCI-H226 > 100 µM | PC-3 > 100 µM | SK-MEL-2 > 100 µM

COC(=O)c1cc2ccc(N)nc2[nH]c1=O
inactive: HCC 2998 > 100 µM | MDA-MB-435 > 100 µM | OVCAR-4 > 100 µM | NCI/ADR-RES > 100 µM | RPMI-8226 > 100 µM | SNB-75 > 100 µM | MCF7 > 100 µM | UO-31 > 100 µM | EKVX > 100 µM | M14 > 100 µM | COLO 205 > 100 µM | SK-MEL-28 > 100 µM | ACHN > 100 µM | 786-0 > 100 µM | LOX IMVI > 100 µM | A549 > 100 µM | NCI-H226 > 100 µM | PC-3 > 100 µM | SK-MEL-2 > 100 µM

O=C(O)CCNCC(=O)O
inactive: SR > 100 µM | MDA-MB-435 > 100 µM | NCI/ADR-RES > 100 µM | RPMI-8226 > 100 µM | SNB-75 > 100 µM | MCF7 > 100 µM | UO-31 > 100 µM | EKVX > 100 µM | M14 > 100 µM | COLO 205 > 100 µM | SK-MEL-28 > 100 µM | ACHN > 100 µM | 786-0 > 100 µM | LOX IMVI > 100 µM | A549 > 100 µM | NCI-H226 > 100 µM | PC-3 > 100 µM | SK-MEL-2 > 100 µM
